{
  "source": "patent US10471025B2",
  "about": "“Compositions for use in treating parkinson's disease and related disorders” (Technophage, Investigação E Desenvolvimento Em …, priority 2015, dated 2019)",
  "key": {"[1]": {"details": "storage below 25 éC; cited from earlier work"}, "[2]": {"details": "chronic dosing; cited from earlier work"}, "[3]": {"system": "6-OHDA mouse model", "format": "in vivo", "details": "for Gait test: maximum velocity, mean velocity, percentage of time resting or moving fast: tapentadol hydrochloride 8 or 15 mg/kg/day, hydrochloride", "description": "That is, tapentadol hydrochloride C1 concentration dosage was increased to 8 mg/kg/day and tapentadol hydrochloride C3 concentration dosage was increased to 15 mg/kg/day. The gait test plan is illustrated in FIGS. 24A-24B.\nTo better observe the movement pattern of mice ̆s limbs, a new device was engineered similar to that used in a beam test, but with a closed corridor and a door. The apparatus was transparent with two home-cages at the extremities, one at the entrance that is transparent and another on the opposite end that is black. Each test was repeated 5 times and the 3 more consistent trials were selected for paw placement analysis. Data was recorded by 3 different cameras: on the bottom, top, and side of the corridor. Each camera allowed measurement of a different gait parameter. Specifically, the bottom camera allowed measurement, through the base of the support, of the hind paw distance and hind paw angle. The top camera allowed measurement of different parameters at distinct zones^—in the green area (most of the length of the apparatus), maximum and mean velocity, percentage of time resting/moving slow/moving fast, and time to the door were measured; the dark blue area provided a lag zone; and in the yellow area (area in front of the door), the permanence time before the door, mean velocity before the door, and latency to cross the door were measured. The side camera was used to analyze mice posture."}, "[4]": {"system": "6-OHDA treated zebrafish larvae", "assay": "Locomotor behavior rescue (total distance moved, number of jumps) in 6-OHDA zebrafish PD model", "format": "in vivo", "text": "To model Parkinson ̆s disease (PD), a neurotoxin 6-OHDA (6-hyroxydopamine) based method was used in zebrafish and in mice. In this model, 6-OHDA-lesions induce motor manifestations in zebrafish and in mice, such as reduced locomotor ability, and the loss of dopaminergic neurons. Based on the 6-OHDA PD zebrafish model, compounds from a small molecules library were screened for rescue of the parkinsonian phenotype (Example 1, see below).\nThe screen was based on both the recovery of impaired locomotor behavior and dopaminergic neuronal loss.\nValues were normalized for the mean of disease state in each experiment (disease=1). Each plot contains data from 3 independent experiments with a total of 24 larvae. As a control, zebrafish were treated with only the vehicle, ascorbic acid.\nFor these experiments, Tubingen (TU) wild-type zebrafish, a specific strain of wild-type zebrafish, were used."}, "[5]": {"details": "cited from earlier work; for Bioavailability: 86 mg"}, "[6]": {"system": "cytochrome P450 (CY P) isoenzymes", "details": "cited from earlier work"}, "[7]": {"system": "6-OHDA treated zebrafish larvae", "assay": "LD50 / lethality in the disease context of the zebrafish model"}, "[8]": {"details": "after a high-fat, high-calorie breakfast"}},
  "note": "Counter-ions that a name gives are not always drawn. Like-named read-outs stand apart in the source and are kept apart here.",
  "data": [
    {"smiles": "CC[C@@H](c1cccc(O)c1)[C@@H](C)CN(C)C", "note": "[tapentadol, tapentadol hydrochloride]", "values": [
      {"measurement": "Re-test period", "setting": "[1]", "result": 30, "unit": "months"},
      {"measurement": "Hepatic hypertrophy", "setting": "[2]", "result": "present in all animal species"},
      {"measurement": "Gait test: all parameters measured", "setting": "[3]; 21 dpi, L-Dopa ON period", "result": "no significant improvement"},
      {"measurement": "Gait test: permanence time before the door, latency to cross the door, mean velocity before the door", "setting": "[3]; 29 dpi, L-Dopa OFF period", "result": "behavioral recovery"},
      {"measurement": "Gait test: maximum velocity, mean velocity, percentage of time resting or moving fast", "setting": "[3]; 29 dpi, L-Dopa OFF period, listed as Tapentadol hydrochloride", "result": "behavioral recovery"},
      {"measurement": "Gait test: maximum velocity, mean velocity, percentage of time resting or moving fast", "setting": "[3]; 29 dpi, L-Dopa OFF period, listed as tapentadol hydrochloride", "result": "ameliorated"},
      {"measurement": "Therapeutic window", "setting": "[4]; 6-OHDA zebrafish larvae", "result": "20 to 113", "unit": "µM"},
      {"measurement": "Locomotor behavior rescue (total distance moved, number of jumps), confirmation of screen", "setting": "[4]; 7 candidate molecules, 3 independent experiments", "result": "strong candidates"},
      {"measurement": "Optimal concentration", "setting": "[4]; behavioral experiments and TH+ cell counts", "result": 48.5, "unit": "µM"},
      {"measurement": "Total distance travelled, difference between treated larvae and disease control", "setting": "[4]; tapentadol 48.5, stavudine 50, nabumetone 0.456 and 0.91 μM, n=8 fish", "result": "~200", "unit": "mm"},
      {"measurement": "Number of jumps: concentration validated as recovering the 6-OHDA induced behavior", "setting": "[4]; zebrafish, in vivo", "result": 56.25, "unit": "µM"},
      {"measurement": "Conjugated form among related compounds excreted in the urine", "setting": "[5]; 100 mg radiolabelled oral dose", "result": 69, "unit": "%"},
      {"measurement": "Drug recovered in 5 days", "setting": "[5]; 100 mg radiolabelled oral dose", "result": 99.9, "unit": "%"},
      {"measurement": "Excreted via urine", "setting": "[5]; 100 mg radiolabelled oral dose", "result": 99, "unit": "%"},
      {"measurement": "Exposure to the conjugates, of the total", "setting": "[5]; 100 mg radiolabelled oral dose", "result": "approximately 64%"},
      {"measurement": "Other forms of metabolites among related compounds excreted in the urine", "setting": "[5]; 100 mg radiolabelled oral dose", "result": 27, "unit": "%"},
      {"measurement": "Parent drug among related compounds excreted in the urine", "setting": "[5]; 100 mg radiolabelled oral dose", "result": 3, "unit": "%"},
      {"measurement": "Total dose excreted within 24 hours", "setting": "[5]; 100 mg radiolabelled oral dose", "result": 95, "unit": "%"},
      {"measurement": "Total drug excreted in the feces", "setting": "[5]; 100 mg radiolabelled oral dose", "result": "Approximately 1%"},
      {"measurement": "Cmax", "setting": "[5]; ER", "result": 22.5, "unit": "ng/mL"},
      {"measurement": "Cmax", "setting": "[5]; IR", "result": 64.2, "unit": "ng/mL"},
      {"measurement": "Tmax", "setting": "[5]; IR", "result": 1.5, "unit": "h"},
      {"measurement": "Increase of AUC with food", "setting": "[5]; [8]", "result": 25, "unit": "%"},
      {"measurement": "Increase of Cmax with food", "setting": "[5]; [8]", "result": 16, "unit": "%"},
      {"measurement": "Elimination half-life", "setting": "[5]; after oral administration", "result": 4, "unit": "h"},
      {"measurement": "Metabolized to N-desmethyl tapentadol", "setting": "[5]; by CY P2C9 and CY P2C19", "result": 13, "unit": "%"},
      {"measurement": "Metabolized to hydroxy tapentadol", "setting": "[5]; by CY P2D6", "result": 2, "unit": "%"},
      {"measurement": "Bioavailability", "setting": "[5]; extended release (ER)", "result": 32, "unit": "%"},
      {"measurement": "Lower mean Cmax in elderly vs young adult subjects", "setting": "[5]; geriatric patients", "result": 16, "unit": "%"},
      {"measurement": "Parent compound metabolized", "setting": "[5]; humans", "result": "about 97%"},
      {"measurement": "Bioavailability", "setting": "[5]; immediate release (IR)", "result": 32, "unit": "%"},
      {"measurement": "Drug excreted in urine as unchanged drug", "setting": "[5]; in vivo", "result": 3, "unit": "%"},
      {"measurement": "Excretion via the kidneys (tapentadol and its metabolites)", "setting": "[5]; in vivo", "result": 99, "unit": "%"},
      {"measurement": "Total clearance", "setting": "[5]; in vivo", "result": "1530 ± 177", "unit": "mL/min"},
      {"measurement": "Volume of distribution (Vz)", "setting": "[5]; intravenous administration, hydrochloride", "result": "540 ± 98", "unit": "L"},
      {"measurement": "AUC ratio vs normal hepatic function", "setting": "[5]; mild hepatic impairment (Child-Pugh Score 5 to 6)", "result": 1.7},
      {"measurement": "Cmax ratio vs normal hepatic function", "setting": "[5]; mild hepatic impairment", "result": 1.4},
      {"measurement": "t1/2 ratio vs normal hepatic function", "setting": "[5]; mild hepatic impairment", "result": 1.2},
      {"measurement": "AUC ratio vs normal hepatic function", "setting": "[5]; moderate hepatic impairment (Child-Pugh Score 7 to 9)", "result": 4.2},
      {"measurement": "Cmax ratio vs normal hepatic function", "setting": "[5]; moderate hepatic impairment", "result": 2.5},
      {"measurement": "t1/2 ratio vs normal hepatic function", "setting": "[5]; moderate hepatic impairment", "result": 1.4},
      {"measurement": "Mean accumulation factor", "setting": "[5]; multiple (every 6 hour) dose study, 75 to 175 mg tapentadol", "result": 1.6},
      {"measurement": "Time of maximum serum concentrations after dosing", "setting": "[5]; oral", "result": "around 1.25 hours"},
      {"measurement": "Mean absolute bioavailability", "setting": "[5]; single-dose administration (fasting)", "result": "approximately 32%"},
      {"measurement": "Dose excreted as O-glucuronide", "setting": "[5]; urine", "result": 55, "unit": "%"},
      {"measurement": "Dose excreted as sulfate of tapentadol", "setting": "[5]; urine", "result": 15, "unit": "%"},
      {"measurement": "Induction of CYP isoenzymes", "setting": "[6]", "result": "no significant induction"},
      {"measurement": "LD50", "setting": "[7]; 6-OHDA disease-induced zebrafish larvae", "result": "8079 | M"},
      {"measurement": "LD50", "setting": "[7]; 6-OHDA zebrafish larvae", "result": "8,079 μM"}
    ]}
  ]
}
